# Assay results published in ChEMBL document CHEMBL4808208, “Hepatoselective Dihydroquinolizinone Bis-acids for HBsAg mRNA Degradation” (ACS Med Chem Lett, 2021).
# Several values for one entry are separate records, joined by “and”; a condition that tells them apart may be missing. Equal values may be shown once. Activity calls are given as the source filed them. The calls are words filed in the database; no cut-off is given here.
# Experiments:
# OATP1B3 = experiment: Ratio of drug uptake in HEK293 cells transfected with OATP1B3 (unknown origin) in absence of transporter inhibitor, estradiol-17beta-glucuronide to drug uptake in HEK293 cells in absence of transporter inhibitor, estradiol-17beta-glucuronide by LC-MS/MS analysis; format: ADME, cell-based; conditions: human, HEK293 cells transfected with OATP1B3 versus HEK293 cells
# [1] = Efflux ratio of apparent permeability in MDCK-MDR1 cells at 1 uM after 120 mins by LC-MS/MS analysis; format: ADME, cell-based, Canis lupus familiaris; conditions: dog
# Cytochrome P450 2B6 = target: T1, Cytochrome P450 2B6 (Homo sapiens, UniProt P20813); experiment: Inhibition of CYP2B6 in human liver microsomes using bupropion as substrate preincubated for 5 mins followed by NADPH addition by LC-MS/MS analysis; format: ADME
# T1 sequence (P20813 whole entry): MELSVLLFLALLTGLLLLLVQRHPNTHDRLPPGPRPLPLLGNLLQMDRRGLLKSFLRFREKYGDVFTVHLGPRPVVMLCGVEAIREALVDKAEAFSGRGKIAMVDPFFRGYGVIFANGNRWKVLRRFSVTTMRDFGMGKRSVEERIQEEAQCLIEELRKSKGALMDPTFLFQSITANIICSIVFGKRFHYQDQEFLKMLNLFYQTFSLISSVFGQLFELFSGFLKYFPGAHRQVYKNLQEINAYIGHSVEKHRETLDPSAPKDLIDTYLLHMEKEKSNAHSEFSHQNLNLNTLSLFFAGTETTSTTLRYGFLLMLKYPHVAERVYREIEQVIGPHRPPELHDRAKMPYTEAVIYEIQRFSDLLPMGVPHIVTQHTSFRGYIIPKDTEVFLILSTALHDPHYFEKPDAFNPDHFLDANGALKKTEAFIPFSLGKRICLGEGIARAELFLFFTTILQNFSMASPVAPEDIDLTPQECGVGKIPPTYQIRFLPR
# Cytochrome P450 2E1 = Cytochrome P450 2E1 (Homo sapiens, UniProt P05181); experiment: Inhibition of CYP2E1 in human liver microsomes using chlorzoxazone as substrate preincubated for 5 mins followed by NADPH addition by LC-MS/MS analysis; format: ADME
# [2] = Half life in CD-1 mouse plasma at 3 mg/kg, iv measured for 24 hrs by LC-MS/MS analysis; format: ADME, organism-based
# [3] = AUC (last) in CD-1 mouse plasma at 8 mg/kg, po measured for 24 hrs by LC-MS/MS analysis; format: ADME, organism-based; parameters: route oral, dose 8 mg/kg, time 24 hrs
# [4] = AUC (last) in CD-1 mouse liver at 8 mg/kg, po measured for 24 hrs by LC-MS/MS analysis; format: ADME, organism-based; parameters: route oral, time 24 hrs, dose 8 mg/kg
# [5] = Drug concentration in CD-1 mouse liver at 8 mg/kg, po measured after 8 hrs by LC-MS/MS analysis; format: ADME, organism-based; conditions: read-out: Ct
# Hepatitis B virus = experiment: Antiviral activity against Hepatitis B virus infected in human HepG2.2.15 cells assessed as reduction in HBV subgenomic 2.4/2.1 kb mRNA level at 1 uM measured after 5 days by Northern blot analysis; format: functional, organism-based; conditions: time 5.0 day
# Sequence of Cytochrome P450 2E1 (P05181 whole entry): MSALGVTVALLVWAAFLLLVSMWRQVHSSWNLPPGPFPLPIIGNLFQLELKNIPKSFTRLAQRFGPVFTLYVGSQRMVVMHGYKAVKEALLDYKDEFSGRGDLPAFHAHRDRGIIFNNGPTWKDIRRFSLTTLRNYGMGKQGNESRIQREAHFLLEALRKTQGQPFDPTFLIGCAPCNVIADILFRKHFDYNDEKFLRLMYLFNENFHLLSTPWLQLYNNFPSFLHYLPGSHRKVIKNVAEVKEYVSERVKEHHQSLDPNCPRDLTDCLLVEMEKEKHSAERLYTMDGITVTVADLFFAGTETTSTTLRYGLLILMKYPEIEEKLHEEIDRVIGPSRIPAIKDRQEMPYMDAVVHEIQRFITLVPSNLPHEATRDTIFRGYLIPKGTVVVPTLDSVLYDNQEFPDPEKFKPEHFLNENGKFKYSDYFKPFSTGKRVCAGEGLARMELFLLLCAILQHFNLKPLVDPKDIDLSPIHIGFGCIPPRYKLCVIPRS
smiles,measurement,setting,value
COc1cc2c(cc1OCCCCCCC(=O)O)C[C@@H](C(C)C)n1cc(C(=O)O)c(=O)cc1-2,uptake ratio,OATP1B3,24.8
same,"efflux ratio at 2 h, 1 µM",[1],1.47
same,IC50,Cytochrome P450 2B6,> 10 µM
same,IC50,Cytochrome P450 2E1,> 10 µM
same,half-life,[2],1.48 h
same,AUC(0-t) at 24 h,[3],34.7 ng·h/mL
same,AUC(0-t) at 24 h,[4],1310 ng·h/mL
same,concentration at 8 h,[5],63 ng/mL and 140 nM
same,Activity,Hepatitis B virus,Active
